# In PubChem BioAssay AID1259407 (Chemical Carcinogenesis Research Information System (CCRIS), 2018):
# The source made the active and inactive calls. The rule behind the calls is not given here.
# Test system: CCRIS mutagenicity, Ames/micronucleus/aberration tests
# Test: CCRIS mutagenicity studies
# [1] = Test System: AMES SALMONELLA TYPHIMURIUM, Strain/Indicator: TA98, Metabolic Activation: HAMSTER, LIVER, S-9, AROCLOR 1254, Method: STANDARD PLATE
# [2] = Test System: AMES SALMONELLA TYPHIMURIUM, Strain/Indicator: TA98, Metabolic Activation: NONE, Method: STANDARD PLATE
# [3] = Test System: AMES SALMONELLA TYPHIMURIUM, Strain/Indicator: TA98, Metabolic Activation: RAT, LIVER, S-9, AROCLOR 1254, Method: STANDARD PLATE
# [4] = Test System: AMES SALMONELLA TYPHIMURIUM, Strain/Indicator: TA100, Metabolic Activation: HAMSTER, LIVER, S-9, AROCLOR 1254, Method: STANDARD PLATE
# [5] = Test System: AMES SALMONELLA TYPHIMURIUM, Strain/Indicator: TA100, Metabolic Activation: NONE, Method: STANDARD PLATE
# [6] = Test System: AMES SALMONELLA TYPHIMURIUM, Strain/Indicator: TA100, Metabolic Activation: RAT, LIVER, S-9, AROCLOR 1254, Method: STANDARD PLATE
# [7] = Test System: AMES SALMONELLA TYPHIMURIUM, Strain/Indicator: TA1535, Metabolic Activation: HAMSTER, LIVER, S-9, AROCLOR 1254, Method: STANDARD PLATE
# [8] = Test System: AMES SALMONELLA TYPHIMURIUM, Strain/Indicator: TA1535, Metabolic Activation: NONE, Method: STANDARD PLATE
# [9] = Test System: AMES SALMONELLA TYPHIMURIUM, Strain/Indicator: TA1535, Metabolic Activation: RAT, LIVER, S-9, AROCLOR 1254, Method: STANDARD PLATE
# [10] = Test System: AMES SALMONELLA TYPHIMURIUM, Strain/Indicator: TA1537, Metabolic Activation: HAMSTER, LIVER, S-9, AROCLOR 1254, Method: STANDARD PLATE
# [11] = Test System: AMES SALMONELLA TYPHIMURIUM, Strain/Indicator: TA1537, Metabolic Activation: NONE, Method: STANDARD PLATE
# [12] = Test System: AMES SALMONELLA TYPHIMURIUM, Strain/Indicator: TA1537, Metabolic Activation: RAT, LIVER, S-9, AROCLOR 1254, Method: STANDARD PLATE
# [13] = Test System: AMES SALMONELLA TYPHIMURIUM, Strain/Indicator: TA1538, Metabolic Activation: HAMSTER, LIVER, S-9, AROCLOR 1254, Method: STANDARD PLATE
# [14] = Test System: AMES SALMONELLA TYPHIMURIUM, Strain/Indicator: TA1538, Metabolic Activation: NONE, Method: STANDARD PLATE
# [15] = Test System: AMES SALMONELLA TYPHIMURIUM, Strain/Indicator: TA1538, Metabolic Activation: RAT, LIVER, S-9, AROCLOR 1254, Method: STANDARD PLATE
# [16] = Test System: MOUSE LYMPHOMA, Strain/Indicator: L5178Y (TK+/TK-), Metabolic Activation: NONE, Method: SUSPENSION/PLATE
# [17] = Test System: MOUSE LYMPHOMA, Strain/Indicator: L5178Y (TK+/TK-), Metabolic Activation: RAT, LIVER, S-9, AROCLOR 1254, Method: SUSPENSION/PLATE
smiles,measurement,setting,value
CSC(C)(C)/C=N/O,mutagenic call,"End Point: IN VITRO CHROMOSOMAL ABERRATIONS, Test System: CHO-LB CELLS, Metabolic Activation: NONE",inactive; negative
same,mutagenic call,"End Point: IN VITRO CHROMOSOMAL ABERRATIONS, Test System: CHO-LB CELLS, Metabolic Activation: RAT, LIVER, S-9, AROCLOR 1254",inactive; negative
same,mutagenic call,[1],inactive; negative
same,mutagenic call,[2],inactive; negative
same,mutagenic call,[3],inactive; negative
same,mutagenic call,[4],inactive; negative
same,mutagenic call,[5],inactive; negative
same,mutagenic call,[6],inactive; negative
same,mutagenic call,[7],inactive; negative
same,mutagenic call,[8],inactive; negative
same,mutagenic call,[9],inactive; negative
same,mutagenic call,[10],inactive; negative
same,mutagenic call,[11],inactive; negative
same,mutagenic call,[12],inactive; negative
same,mutagenic call,[13],inactive; negative
same,mutagenic call,[14],inactive; negative
same,mutagenic call,[15],inactive; negative
same,mutagenic call,[16],inactive; negative. reevaluation of results: equivocal
same,mutagenic call,[17],inactive; negative. reevaluation of results: negative
O=c1[nH][nH]c2ccccc12,mutagenic call,[1],inactive; negative
same,mutagenic call,[2],inactive; negative
same,mutagenic call,[3],inactive; negative
same,mutagenic call,[4],inactive; negative
same,mutagenic call,[5],inactive; negative
same,mutagenic call,[6],inactive; negative
same,mutagenic call,[7],inactive; negative
same,mutagenic call,[8],inactive; negative
same,mutagenic call,[9],inactive; negative
same,mutagenic call,[10],inactive; negative
same,mutagenic call,[11],inactive; negative
same,mutagenic call,[12],inactive; negative
same,mutagenic call,[13],inactive; negative
same,mutagenic call,[14],inactive; negative
same,mutagenic call,[15],inactive; negative
same,mutagenic call,[16],active; positive. reevaluation of results: positive
same,mutagenic call,[17],inactive; negative. reevaluation of results: negative
Nc1cc(CCO)c(N)c([N+](=O)[O-])c1,mutagenic call,[2],active; positive
same,mutagenic call,[3],active; positive
same,mutagenic call,[5],inactive; negative
same,mutagenic call,[6],active; positive
same,mutagenic call,[8],inactive; negative
same,mutagenic call,[9],inactive; negative
same,mutagenic call,[11],inactive; negative
same,mutagenic call,[12],inactive; negative
same,mutagenic call,[14],active; positive
same,mutagenic call,[15],active; positive
ClC(Cl)C(Cl)(Cl)Cl,mutagenic call,"End Point: IN VITRO CHROMOSOMAL ABERRATIONS, Test System: CHINESE HAMSTER LUNG FIBROBLAST CELLS (CHL/IU), Metabolic Activation: RAT, LIVER, S-9, PHENOBARBITAL AND 5,6-BENZOFLAVONE",inactive; negative
same,mutagenic call,"End Point: IN VITRO CHROMOSOMAL ABERRATIONS, Test System: CHINESE HAMSTER OVARY CELLS, Metabolic Activation: NONE",inactive; negative
same,mutagenic call,"End Point: IN VITRO CHROMOSOMAL ABERRATIONS, Test System: CHINESE HAMSTER OVARY CELLS, Metabolic Activation: RAT, LIVER, S-9, AROCLOR 1254",inactive; negative
same,mutagenic call,"Test System: MOUSE LYMPHOMA, Strain/Indicator: L5178Y (TK+/TK-), Metabolic Activation: NONE, Method: MICROWELL",active; positive
same,mutagenic call,"Test System: MOUSE LYMPHOMA, Strain/Indicator: L5178Y (TK+/TK-), Metabolic Activation: S-9, Method: MICROWELL",inactive; negative
COC(C)=O,mutagenic call,"Test System: AMES SALMONELLA TYPHIMURIUM, Strain/Indicator: TA97, Metabolic Activation: HAMSTER, LIVER, S-9, AROCLOR 1254 (10 OR 30%), Method: PREINCUBATION",inactive; negative
same,mutagenic call,"Test System: AMES SALMONELLA TYPHIMURIUM, Strain/Indicator: TA97, Metabolic Activation: NONE, Method: PREINCUBATION",inactive; negative
same,mutagenic call,"Test System: AMES SALMONELLA TYPHIMURIUM, Strain/Indicator: TA97, Metabolic Activation: RAT, LIVER, S-9, AROCLOR 1254 (10 OR 30%), Method: PREINCUBATION",inactive; negative
same,mutagenic call,"Test System: AMES SALMONELLA TYPHIMURIUM, Strain/Indicator: TA98, Metabolic Activation: HAMSTER, LIVER, S-9, AROCLOR 1254 (10 OR 30%), Method: PREINCUBATION",inactive; negative
same,mutagenic call,"Test System: AMES SALMONELLA TYPHIMURIUM, Strain/Indicator: TA98, Metabolic Activation: NONE, Method: PREINCUBATION",inactive; negative
same,mutagenic call,"Test System: AMES SALMONELLA TYPHIMURIUM, Strain/Indicator: TA98, Metabolic Activation: RAT, LIVER, S-9, AROCLOR 1254 (10 OR 30%), Method: PREINCUBATION",inactive; negative
same,mutagenic call,"Test System: AMES SALMONELLA TYPHIMURIUM, Strain/Indicator: TA100, Metabolic Activation: HAMSTER, LIVER, S-9, AROCLOR 1254 (10 OR 30%), Method: PREINCUBATION",inactive; negative
same,mutagenic call,"Test System: AMES SALMONELLA TYPHIMURIUM, Strain/Indicator: TA100, Metabolic Activation: NONE, Method: PREINCUBATION",inactive; negative
same,mutagenic call,"Test System: AMES SALMONELLA TYPHIMURIUM, Strain/Indicator: TA100, Metabolic Activation: RAT, LIVER, S-9, AROCLOR 1254 (10 OR 30%), Method: PREINCUBATION",inactive; negative
same,mutagenic call,"Test System: AMES SALMONELLA TYPHIMURIUM, Strain/Indicator: TA1535, Metabolic Activation: HAMSTER, LIVER, S-9, AROCLOR 1254 (10 OR 30%), Method: PREINCUBATION",inactive; negative
same,mutagenic call,"Test System: AMES SALMONELLA TYPHIMURIUM, Strain/Indicator: TA1535, Metabolic Activation: NONE, Method: PREINCUBATION",inactive; negative
same,mutagenic call,"Test System: AMES SALMONELLA TYPHIMURIUM, Strain/Indicator: TA1535, Metabolic Activation: RAT, LIVER, S-9, AROCLOR 1254 (10 OR 30%), Method: PREINCUBATION",inactive; negative
same,mutagenic call,"Test System: AMES SALMONELLA TYPHIMURIUM, Strain/Indicator: TA1537, Metabolic Activation: HAMSTER, LIVER, S-9, AROCLOR 1254 (30%), Method: PREINCUBATION",inactive; negative
same,mutagenic call,"Test System: AMES SALMONELLA TYPHIMURIUM, Strain/Indicator: TA1537, Metabolic Activation: NONE, Method: PREINCUBATION",inactive; negative
same,mutagenic call,"Test System: AMES SALMONELLA TYPHIMURIUM, Strain/Indicator: TA1537, Metabolic Activation: RAT, LIVER, S-9, AROCLOR 1254 (30%), Method: PREINCUBATION",inactive; negative
Clc1cccc2c1oc1ccccc12,mutagenic call,[2],inactive; negative
same,mutagenic call,"Test System: AMES SALMONELLA TYPHIMURIUM, Strain/Indicator: TA98, Metabolic Activation: RAT, LIVER, S-9, PHENOBARBITAL AND NAPHTHOFLAVONE, Method: STANDARD PLATE",inactive; negative
same,mutagenic call,[5],inactive; negative
same,mutagenic call,"Test System: AMES SALMONELLA TYPHIMURIUM, Strain/Indicator: TA100, Metabolic Activation: RAT, LIVER, S-9, PHENOBARBITAL AND NAPHTHOFLAVONE, Method: STANDARD PLATE",inactive; negative
CC(=O)N(C)N=O,mutagenic call,[8],active; positive
same,mutagenic call,"Test System: E. COLI, Strain/Indicator: WU3610, Metabolic Activation: NONE, Method: SUSPENSION/PLATE",active; positive
